Assay results as given in patent US20230093099A1, “COMPOUNDS AND METHODS OF TREATING CANCERS” (CULLGEN (SHANGHAI), INC., priority 2019, published 2023).
pIC50: −log10 of the molar value.

Test system: RS4;11 cells
Experiment: Cell viability assay (CellTiter-Glo) in RS4;11 cells
Format: cell-based
Conditions: Homo sapiens, 72 h; RS4;11 ALL cells treated for three days; read-out: cell viability inhibition IC50
How it was run: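 Three-day compound treatment of RS4;11 ALL cells (5000/well, 3-fold dilution series of 8 or 12 points), with IC50 from a nonlinear least-squares fit to CellTiter-Glo viability data.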

pIC50	Structure (SMILES)
> 7.00	O=C1CCC(N2C(=O)c3ccc(NCCCCCCCC(=O)N4CCC(n5cc(-c6cnc7cccc(-c8cc(F)c(CN9CCOCC9)c(F)c8)c7n6)cn5)CC4)cc3C2=O)C(=O)N1 (stereo not shown) [JA-187, 5-((8-(4-(4-(8-(3,5-difluoro-4-(morpholinomethyl)phenyl)quinoxalin-2-yl)-1H-pyrazol-1-yl)piperidin-1-yl)-8-oxooctyl)amino)-2-(2,6-dioxopiperidin-3-yl)isoindoline-1,3-dione]

Same assay, conditions: Homo sapiens, 72 h; RS4;11 cells; cell viability, 3 days, CellTiter-Glo; read-out: IC50

pIC50	Structure (SMILES)
< 5.00	Cc1ncsc1-c1ccc(CNC(=O)[C@@H]2C[C@@H](O)CN2C(=O)[C@@H](NC(=O)CCCCNC(=O)CN2CCC(n3cc(-c4cnc5cccc(-c6cc(F)c(CN7CCOCC7)c(F)c6)c5n4)cn3)CC2)C(C)(C)C)cc1 [JA-168, (2S,4R)-1-((S)-2-(5-(2-(4-(4-(8-(3,5-Difluoro-4-(morpholinomethyl)phenyl)quinoxalin-2-yl)-1H-pyrazol-1-yl)piperidin-1-yl)acetamido)pentanamido)-3,3-dimethylbutanoyl)-4-hydroxy-N-(4-(4-methylthiazol-5-yl)benzyl)pyrrolidine-2-carboxamide]
< 5.00	Cc1cnc(Nc2ccc(N3CCN(CC(=O)NCCCCCCCCC(=O)N[C@H](C(=O)N4C[C@H](O)C[C@H]4C(=O)NCc4ccc(-c5scnc5C)cc4)C(C)(C)C)CC3)cc2)nc1Nc1cccc(S(=O)(=O)NC(C)(C)C)c1 [JA-104, (2S,4R)-1-((S)-2-(9-(2-(4-(4-((4-((3-(N-(tert-Butyl)sulfamoyl)phenyl)amino)-5-methylpyrimidin-2-yl)amino)phenyl)piperazin-1-yl)acetamido)nonanamido)-3,3-dimethylbutanoyl)-4-hydroxy-N-(4-(4-methylthiazol-5-yl)benzyl)pyrrolidine-2-carboxamide]
< 6.30	Cn1c(=O)n(C2CCC(=O)NC2=O)c2ccc(NCCCCC(=O)N3CCC(n4cc(-c5cnc6cccc(-c7cc(F)c(CN8CCOCC8)c(F)c7)c6n5)cn4)CC3)cc21 (stereo not shown) [JA-287, 3-(5-((5-(4-(4-(8-(3,5-Difluoro-4-(morpholinomethyl)phenyl)quinoxalin-2-yl)-1H-pyrazol-1-yl)piperidin-1-yl)-5-oxopentyl)amino)-3-methyl-2-oxo-2,3-dihydro-1H-benzo[d]imidazol-1-yl)piperidine-2,6-dione]
< 5.00	O=C(CN1CCC(n2cc(-c3cnc4cccc(-c5cc(F)c(CN6CCOCC6)c(F)c5)c4n3)cn2)CC1)NCCOCCNc1cccc2c1C(=O)N(C1CCC(=O)NC1=O)C2=O (stereo not shown) [JA-139, 2-[4-[4-[8-[3,5-Difluoro-4-(morpholinomethyl)phenyl]quinoxalin-2-yl]pyrazol-1-yl]-1-piperidyl]-N-[2-[2-[[2-(2,6-dioxo-3-piperidyl)-1,3-dioxo-isoindolin-4-yl]amino]ethoxy]ethyl]acetamide]
8.27	CS(=O)(=O)c1ccc(-c2cccc3nc(Nc4ccc(N5CCN(C(=O)CCCCCCc6ccc7c(c6)C(=O)N(C6CCC(=O)NC6=O)C7)CC5)cc4)nn23)cc1 (stereo not shown) [JA-268, 3-(6-(7-(4-(4-((5-(4-(methylsulfonyl)phenyl)-[1,2,4]triazolo[1,5-a]pyridin-2-yl)amino)phenyl)piperazin-1-yl)-7-oxoheptyl)-1-oxoisoindolin-2-yl)piperidine-2,6-dione]
< 5.00	CS(=O)(=O)c1ccc(-c2cccc3nc(Nc4ccc(N5CCN(C(=O)CCCCCCCNc6cccc7c6C(=O)N(C6CCC(=O)NC6=O)C7=O)CC5)cc4)nn23)cc1 (stereo not shown) [JA-084, 2-(2,6-Dioxo-piperidin-3-yl)-4-[8-(4-{4-[5-(4-methanesulfonyl-phenyl)-[1,2,4]triazolo[1,5-a]pyridin-2-ylamino]-phenyl}-piperazin-1-yl)-8-oxo-octylamino]-isoindole-1,3-dione]
7.01	O=C1CCC(N2C(=O)c3ccc(C#CCCCCCN4CCC(n5cc(-c6cnc7cccc(-c8cc(F)c(CN9CCOCC9)c(F)c8)c7n6)cn5)CC4)cc3C2=O)C(=O)N1 (stereo not shown) [JA-264, 5-(7-(4-(4-(8-(3,5-difluoro-4-(morpholinomethyl)phenyl)quinoxalin-2-yl)-1H-pyrazol-1-yl)piperidin-1-yl)hept-1-yn-1-yl)-2-(2,6-dioxopiperidin-3-yl)isoindoline-1,3-dione]
< 5.00	Cc1cnc(Nc2ccc(N3CCN(C(=O)CCOCCOCCOCCC(=O)N[C@H](C(=O)N4C[C@H](O)C[C@H]4C(=O)NCc4ccc(-c5scnc5C)cc4)C(C)(C)C)CC3)cc2)nc1Nc1cccc(S(=O)(=O)NC(C)(C)C)c1 [JA-034, (2S,4R)-1-((S)-2-(tert-Butyl)-16-(4-(4-((4-((3-(N-(tert-butyl)sulfamoyl)phenyl)amino)-5-methylpyrimidin-2-yl)amino)phenyl)piperazin-1-yl)-4,16-dioxo-7,10,13-trioxa-3-azahexadecanoyl)-4-hydroxy-N-(4-(4-methylthiazol-5-yl)benzyl)pyrrolidine-2-carboxamide]
< 5.00	Cc1cnc(Nc2ccc(N3CCN(C(=O)COCCOCCOCCOCCOCC(=O)N[C@H](C(=O)N4C[C@H](O)C[C@H]4C(=O)NCc4ccc(-c5scnc5C)cc4)C(C)(C)C)CC3)cc2)nc1Nc1cccc(S(=O)(=O)NC(C)(C)C)c1 [JA-036, (2S,4R)-1-((S)-2-(tert-Butyl)-20-(4-(4-((4-((3-(N-(tert-butyl)sulfamoyl)phenyl)amino)-5-methylpyrimidin-2-yl)amino)phenyl)piperazin-1-yl)-4,20-dioxo-6,9,12,15,18-pentaoxa-3-azaicosanoyl)-4-hydroxy-N-(4-(4-methylthiazol-5-yl)benzyl)pyrrolidine-2-carboxamide]
5.46	O=C1CCC(N2C(=O)c3cccc(NCCOCCOCCOCCOCCC(=O)N4CCC(n5cc(-c6cnc7cccc(-c8cc(F)c(CN9CCOCC9)c(F)c8)c7n6)cn5)CC4)c3C2=O)C(=O)N1 (stereo not shown) [JA-047, 4-[2-[2-[2-[2-[3-[4-[4-[8-[3,5-Difluoro-4-(morpholinomethyl)phenyl]quinoxalin-2-yl]pyrazol-1-yl]-1-piperidyl]-3-oxo-propoxy]ethoxy]ethoxy]ethoxy]ethylamino]-2-(2,6-dioxo-3-piperidyl)isoindoline-1,3-dione]
5.03	Cc1cnc(Nc2ccc(N3CCN(CC(=O)NCCOCCOCCOCCOCCOCCC(=O)N[C@H](C(=O)N4C[C@H](O)C[C@H]4C(=O)NCc4ccc(-c5scnc5C)cc4)C(C)(C)C)CC3)cc2)nc1Nc1cccc(S(=O)(=O)NC(C)(C)C)c1 [JA-223, (2S,4R)-1-((S)-23-(tert-butyl)-1-(4-(4-((4-((3-(N-(tert-butyl)sulfamoyl)phenyl)amino)-5-methylpyrimidin-2-yl)amino)phenyl)piperazin-1-yl)-2,21-dioxo-6,9,12,15,18-pentaoxa-3,22-diazatetracosan-24-oyl)-4-hydroxy-N-(4-(4-methylthiazol-5-yl)benzyl)pyrrolidine-2-carboxamide]
5.61	CS(=O)(=O)c1ccc(-c2cccc3nc(Nc4ccc(N5CCN(C(=O)CCOCCOCCNc6cccc7c6C(=O)N(C6CCC(=O)NC6=O)C7=O)CC5)cc4)nn23)cc1 (stereo not shown) [JA-075, 2-(2,6-Dioxopiperidin-3-yl)-4-((2-(2-(3-(4-(4-((5-(4-(methylsulfonyl)phenyl)-[1,2,4]triazolo[1,5-a]pyridin-2-yl)amino)phenyl)piperazin-1-yl)-3-oxopropoxy)ethoxy)ethyl)amino)isoindoline-1,3-dione]
< 5.00	O=C(CN1CCC(n2cc(-c3cnc4cccc(-c5cc(F)c(CN6CCOCC6)c(F)c5)c4n3)cn2)CC1)NCCOCCOCCOCCOCCOCCNc1ccc2c(c1)C(=O)N(C1CCC(=O)NC1=O)C2=O (stereo not shown) [JA-173, 2-(4-(4-(8-(3,5-Difluoro-4-(morpholinomethyl)phenyl)quinoxalin-2-yl)-1H-pyrazol-1-yl)piperidin-1-yl)-N-(17-((2-(2,6-dioxopiperidin-3-yl)-1,3-dioxoisoindolin-5-yl)amino)-3,6,9,12,15-pentaoxaheptadecyl)acetamide]
< 5.00	Cc1cnc(Nc2ccc(N3CCN(C(=O)COCC(=O)N[C@H](C(=O)N4C[C@H](O)C[C@H]4C(=O)NCc4ccc(-c5scnc5C)cc4)C(C)(C)C)CC3)cc2)nc1Nc1cccc(S(=O)(=O)NC(C)(C)C)c1 [JA-030, (2S,4R)-1-((S)-2-(2-(2-(4-(4-((4-((3-(N-(tert-Butyl)sulfamoyl)phenyl)amino)-5-methylpyrimidin-2-yl)amino)phenyl)piperazin-1-yl)-2-oxoethoxy)acetamido)-3,3-dimethylbutanoyl)-4-hydroxy-N-(4-(4-methylthiazol-5-yl)benzyl)pyrrolidine-2-carboxamide]
7.26	O=C1CCC(N2C(=O)c3ccc(NCCCCCCCC(=O)N4CCC(n5cc(-c6cnc7cccc(-c8cc(F)c(CN9CCOCC9)c(F)c8)c7n6)cn5)CC4)cc3C2=O)C(=O)N1 (stereo not shown) [JA-187, 5-((8-(4-(4-(8-(3,5-difluoro-4-(morpholinomethyl)phenyl)quinoxalin-2-yl)-1H-pyrazol-1-yl)piperidin-1-yl)-8-oxooctyl)amino)-2-(2,6-dioxopiperidin-3-yl)isoindoline-1,3-dione]
5.43	Cc1cnc(Nc2ccc(N3CCN(CC(=O)NCCCC(=O)N[C@H](C(=O)N4C[C@H](O)C[C@H]4C(=O)NCc4ccc(-c5scnc5C)cc4)C(C)(C)C)CC3)cc2)nc1Nc1cccc(S(=O)(=O)NC(C)(C)C)c1 [JA-099, (2S,4R)-1-((S)-2-(4-(2-(4-(4-((4-((3-(N-(tert-Butyl)sulfamoyl)phenyl)amino)-5-methylpyrimidin-2-yl)amino)phenyl)piperazin-1-yl)acetamido)butanamido)-3,3-dimethylbutanoyl)-4-hydroxy-N-(4-(4-methylthiazol-5-yl)benzyl)pyrrolidine-2-carboxamide]
< 5.00	CS(=O)(=O)c1ccc(-c2cccc3nc(Nc4ccc(N5CCN(CC(=O)NCCOCCNc6ccc7c(c6)C(=O)N(C6CCC(=O)NC6=O)C7=O)CC5)cc4)nn23)cc1 (stereo not shown) [JA-212, N-(2-(2-((2-(2,6-Dioxopiperidin-3-yl)-1,3-dioxoisoindolin-5-yl)amino)ethoxy)ethyl)-2-(4-(4-((5-(4-(methylsulfonyl)phenyl)-[1,2,4]triazolo[1,5-a]pyridin-2-yl)amino)phenyl)piperazin-1-yl)acetamide]
6.03	Cc1cnc(Nc2ccc(N3CCN(C(=O)CCOCCOCCOCCOCCOCCNc4cccc5c4C(=O)N(C4CCC(=O)NC4=O)C5=O)CC3)cc2)nc1Nc1cccc(S(=O)(=O)NC(C)(C)C)c1 (stereo not shown) [JA-021]
